Test results taken from the NIST ThermoML archive (doi:10.1016/j.jct.2006.03.010).

Experiment: xn = mol fraction of the nth substance listed
Conditions: 101 kPa, Liquid; for speed of sound: Linear variable-path acoustic interferometer

ClC(Cl)Cl [trichloromethane] + CCCO
Conditions	mass density, 298.15 K [kg/m3]	mass density, 308.15 K [kg/m3]	speed of sound, 298.15 K [m/s]	speed of sound, 308.15 K [m/s]	viscosity, 298.15 K [mPa·s]	viscosity, 308.15 K [mPa·s]
x1 = 0.0521	838.68	829.81	1190	1155	1.84	1.452
x1 = 0.0995	872.8	863.45	1171	1136	1.734	1.373
x1 = 0.1503	909.09	899.13	1153	1117	1.611	1.283
x1 = 0.2009	944.84	934.26	1136	1099	1.492	1.196
x1 = 0.2497	979.01	967.92	1119	1082	1.374	1.111
x1 = 0.3057	1017.84	1006.01	1102	1064	1.235	1.011
x1 = 0.3499	1048.26	1036.01	1089	1052	1.155	0.952
x1 = 0.4031	1084.7	1071.81	1074	1036	1.049	0.886
x1 = 0.4509	1117.15	1103.72	1061	1023	0.968	0.818
x1 = 0.5055	1154.04	1139.98	1046	1009	0.885	0.76
x1 = 0.554	1186.48	1171.86	1035	998	0.822	0.714
x1 = 0.5994	1216.69	1201.5	1025	988	0.776	0.679
x1 = 0.651	1250.99	1235.18	1015	977	0.727	0.647
x1 = 0.7033	1285.41	1269.07	1006	968	0.705	0.618
x1 = 0.7505	1316.56	1299.61	999	961	0.666	0.602
x1 = 0.7999	1348.87	1331.42	993	955	0.64	0.585
x1 = 0.8507	1382.01	1363.98	987	950	0.625	0.572
x1 = 0.9002	1414.19	1395.63	984	947	0.605	0.557
x1 = 0.9484	1445.46	1426.51	983	947	0.586	0.539
x1 = 1	1478.82	1459.45	985	950	0.556	0.513

ClC(Cl)Cl [trichloromethane] + CCO
Conditions	mass density, 298.15 K [kg/m3]	mass density, 308.15 K [kg/m3]	speed of sound, 298.15 K [m/s]	speed of sound, 308.15 K [m/s]	viscosity, 298.15 K [mPa·s]	viscosity, 308.15 K [mPa·s]
x1 = 0.0522	834.86	824.87	1129	1092	1.085	0.902
x1 = 0.1007	879.76	868.7	1114	1076	1.07	0.89
x1 = 0.1468	920.98	909.11	1101	1062	1.043	0.869
x1 = 0.2014	968.01	955.3	1085	1046	1.003	0.836
x1 = 0.2505	1008.24	994.85	1071	1034	0.956	0.803
x1 = 0.3005	1047.8	1033.7	1057	1022	0.901	0.764
x1 = 0.3491	1084.58	1069.92	1045	1011	0.86	0.732
x1 = 0.3999	1121.8	1106.5	1033	1000	0.809	0.696
x1 = 0.4505	1157.08	1141.59	1021	991	0.767	0.665
x1 = 0.5045	1193.09	1177.49	1011	982	0.73	0.64
x1 = 0.5509	1223.51	1207.46	1003	975	0.694	0.613
x1 = 0.6007	1254.55	1238.37	996	967	0.668	0.596
x1 = 0.6492	1284.3	1267.81	990	962	0.644	0.58
x1 = 0.7008	1314.71	1297.8	985	957	0.629	0.569
x1 = 0.7496	1342.79	1325.84	982	953	0.615	0.562
x1 = 0.8059	1374.26	1357.1	981	950	0.601	0.551
x1 = 0.8544	1400.99	1383.35	980	949	0.596	0.549
x1 = 0.8994	1425.35	1407.35	981	949	0.588	0.544
x1 = 0.9498	1452.14	1433.5	983	948	0.576	0.531
x1 = 1	1478.82	1459.45	985	950	0.556	0.513

ClC(Cl)Cl [trichloromethane] + CCCCO
Conditions	mass density, 298.15 K [kg/m3]	mass density, 308.15 K [kg/m3]	speed of sound, 298.15 K [m/s]	speed of sound, 308.15 K [m/s]	viscosity, 298.15 K [mPa·s]	viscosity, 308.15 K [mPa·s]
x1 = 0.0512	836.7	828.27	1215	1190	2.407	1.883
x1 = 0.1	865.9	857	1198	1171	2.248	1.764
x1 = 0.149	895.66	886.25	1180	1153	2.056	1.628
x1 = 0.2009	927.49	917.55	1163	1134	1.872	1.501
x1 = 0.2506	958.3	947.84	1146	1116	1.705	1.372
x1 = 0.2999	989.27	978.3	1130	1099	1.543	1.26
x1 = 0.3659	1031.4	1019.75	1110	1078	1.351	1.114
x1 = 0.407	1057.94	1045.83	1097	1065	1.245	1.035
x1 = 0.4515	1087.02	1074.42	1085	1051	1.139	0.957
x1 = 0.4997	1118.91	1105.67	1071	1037	1.041	0.886
x1 = 0.5502	1152.78	1138.99	1058	1024	0.945	0.815
x1 = 0.6012	1187.46	1173.05	1045	1011	0.877	0.76
x1 = 0.6527	1223.02	1207.99	1033	998	0.804	0.71
x1 = 0.7021	1257.69	1241.99	1022	987	0.755	0.67
x1 = 0.7519	1293.2	1276.84	1013	978	0.715	0.643
x1 = 0.8021	1329.4	1312.4	1004	969	0.67	0.607
x1 = 0.8518	1365.91	1348.31	997	962	0.654	0.595
x1 = 0.9024	1403.63	1385.4	992	956	0.614	0.565
x1 = 0.951	1440.79	1421.97	987	952	0.596	0.546
x1 = 1	1478.82	1459.45	985	950	0.556	0.513

ClC(Cl)Cl [trichloromethane] + CO
Conditions	mass density, 298.15 K [kg/m3]	mass density, 308.15 K [kg/m3]	speed of sound, 298.15 K [m/s]	speed of sound, 308.15 K [m/s]	viscosity, 298.15 K [mPa·s]	viscosity, 308.15 K [mPa·s]
x1 = 0.0501	852.42	842	1080	1048	0.587	0.523
x1 = 0.0959	907.6	896.56	1060	1029	0.612	0.545
x1 = 0.1501	967.31	955.55	1041	1010	0.635	0.564
x1 = 0.2007	1018.13	1005.77	1028	997	0.651	0.576
x1 = 0.2499	1063.89	1050.91	1017	986	0.657	0.584
x1 = 0.3015	1107.99	1094.32	1007	976	0.663	0.586
x1 = 0.3502	1146.56	1132.48	1000	969	0.66	0.588
x1 = 0.3966	1180.85	1166.26	994	963	0.658	0.584
x1 = 0.4498	1217.39	1202.34	989	958	0.651	0.582
x1 = 0.5047	1252.37	1236.78	984	954	0.641	0.572
x1 = 0.5506	1279.51	1263.63	981	950	0.633	0.569
x1 = 0.6033	1308.68	1292.64	979	948	0.619	0.56
x1 = 0.6515	1333.97	1317.33	977	946	0.612	0.552
x1 = 0.7032	1359.31	1342.39	976	945	0.601	0.55
x1 = 0.751	1381.31	1363.96	976	944	0.592	0.536
x1 = 0.7987	1402.09	1384.31	976	944	0.583	0.531
x1 = 0.85	1423.32	1405.26	977	945	0.574	0.523
x1 = 0.902	1443.49	1425.07	979	946	0.567	0.516
x1 = 0.9505	1461.44	1442.54	982	948	0.561	0.515
x1 = 1	1478.82	1459.45	985	950	0.556	0.513
